Test results: patent publication EP4596546A1, “SULFONAMIDE COMPOUND, AND HARMFUL-ARTHROPOD EXTERMINATION COMPOSITION CONTAINING SAME” (priority 2022, dated 2024)

Assays:
Format in all cases: in vivo
[1] = tested on: diamondback moth (Plutella xylostella); experiment: Test Method 4: sprayed cabbage, cut aerial part, second-instar larvae of diamondback moth; conditions: 120 h, spray 20 mL/seedling, after 5 days
Procedure: (§1) Next, Test Examples are used to show effects of the Present compounds on harmful arthropods. In the following Test Examples, the tests were carried out at 25°C. Each test compound is made to a formulation according to a similar method to that described in the Formulation Example 1, and thereto is added water containing 0.03 v/v% of Shindain (registered trademark) to prepare a diluted solution containing a prescribed concentration of the test compound. Cabbage (Brassicae oleracea) seedling (on the developmental stage of the second to third true leaf) is planted in a container, and the diluted solutions are sprayed to the seedling at a ratio of 20 mL/seedling. Thereafter, the aerial part of the seedling is cut out and then is installed into a container in which a filter paper is placed at the bottom of the container. Five of second-instar larvae of diamondback moth (Plutella xylostella) are released into the container. After 5 days, the number of the surviving insects is counted, and the mortality of insects is calculated by the following equation. [formula]

[2] = tested on: housefly (Musca domestica); experiment: Test Method 8: coated glass vial contact test, housefly female adults; conditions: 24 h, 40 mg/m^2 on vial inner face, 1 day
Procedure: (§2) Next, Test Examples are used to show effects of the Present compounds on harmful arthropods. In the following Test Examples, the tests were carried out at 25°C.
An acetone solution which is adjusted to 800 ppm of each test compound is poured into a 20 mL glass vial, and the test compound is coated uniformly on inner face of the vial so as to 40 mg/m^2 of the test compound treated, and the vial is then dried.
5 housefly (Musca domestica) female adults are released into the treated vial, and the vial is then covered with lid. After the prescribed time, the state of the housefly is examined, and the mortality is calculated by the following equation. [formula]

[3] = tested on: diamondback moth (Plutella xylostella); experiment: Test Method 10: sprayed cabbage seedling, third-instar larvae of diamondback moth (formulation per Formulation Example 5); conditions: 120 h, spray 20 mL/seedling, after 5 days
Procedure: as §2
(§3) Each test compound is made to a formulation according to a similar method to that described in the Formulation Example 5, and thereto is added water containing 0.03 v/v% of Shindain (registered trademark) to prepare a diluted solution containing a prescribed concentration of the test compound.
(§4) Cabbage (Brassicae oleracea) seedling (on the developmental stage of the third to fourth true leaf) is planted in a container, and the diluted solutions are sprayed to the seedling at a ratio of 20 mL/seedling. Thereafter, ten of third-instar larvae of diamondback moth (Plutella xylostella) are released. After 5 days, the number of the surviving insects is counted, and the mortality of insects is calculated by the following equation. [formula]

[4] = tested on: common house mosquito (Culex pipiens pallens); experiment: Test Method 12: last instar larvae of common house mosquito released into diluted solution; conditions: 24 h, after 1 day
Procedure: as §2
Each test compound is formulated to a test formulation according to a similar method to that described in the Formulation Example 1, and water is added in preparing for a diluted solution containing a prescribed concentration of the test compound.
Into the diluted solution, 30 last instar larvae of common house mosquito (Culex pipiens pallens) are released, and after 1 day, the state of the house mosquito larvae is examined, and the mortality is calculated by the following equation. [formula]

[5] = tested on: cotton worm (Spodoptera litura); experiment: Test Method 9: sprayed cabbage seedling, third-instar larvae of cotton worm (formulation per Formulation Example 5); conditions: 144 h, spray 20 mL/seedling, after 6 days
Procedure: as §2, §3
as §4, with “cotton worm (Spodoptera litura)” for “diamondback moth (Plutella xylostella)”, “6” for “5”

[6] = tested on: Western corn rootworm (Diabrotica virgifera virgifera); experiment: whole plant or invertebrate; conditions: 120 h
Procedure: as §2
Each 1 mg of the test compounds is dissolved in 50 µL of a mixed solution consisting of 5% of polyoxyethylene sorbitan mono-cocoate and 95% of acetone by volume ratio. Thereto is added water containing 0.03% by volume of Shindain (registered trademark) to prepare a diluted solution containing a prescribed concentration of the test compound.
A young seedling of corn (Zea mays) is immersed into the diluted solution for 30 seconds. Thereafter, two seedlings are installed in a plastic petri dish (90 mm […]), and 10 of second-instar larvae of Western corn rootworm (Diabrotica virgifera virgifera) are released into the dish. After 5 days, the number of the dead insects is counted, and the mortality of insects is calculated by the following equation. Mortality (%) = (Numberofdeadinsects/10) × 100 [formula]

[7] = tested on: cotton worm (Spodoptera litura); experiment: Test Method 3: sprayed cabbage, cut aerial part, second-instar larvae of cotton worm; conditions: 120 h, spray 20 mL/seedling, after 5 days
Procedure: as §1, with “cotton worm (Spodoptera litura)” for “diamondback moth (Plutella xylostella)”

[8] = tested on: German cockroach (Blattella germanica); experiment: Test Method 6: coated glass vial contact test, German cockroach male adults; conditions: 72 h, 40 mg/m^2 on vial inner face, 3 days
Procedure: as §2
An acetone solution which is adjusted to 800 ppm of each test compound is poured into a 50 mL glass vial, and the test compound is coated uniformly on inner face of the vial so as to 40 mg/m^2 of the test compound treated, and the vial is then dried.
5 German cockroach (Blattella germanica) male adults are released into the treated vial, and the vial is then covered with lid. After the prescribed time, the state of the German cockroach is examined, and the mortality is calculated by the following equation. [formula]

[9] = tested on: Haemaphysalis longicornis; experiment: Test Method 7: coated glass vial contact test, Haemaphysalis longicornis nymphs; conditions: 48 h, 100 mg/m^2 on vial inner face, 2 days
Procedure: An acetone solution which is adjusted to 2000 ppm of each test compound is poured into a 20 mL glass vial, and the test compound is coated uniformly on inner face of the vial so as to 100 mg/m^2 of the test compound treated, and the vial is then dried.
5 Haemaphysalis longicornis nymphs are released into the treated vial, and the vial is then covered with lid. After the prescribed time, the state of the Haemaphysalis longicornis is examined, and the mortality is calculated by the following equation.

| Compound | mortality at 500 ppm [1] [%] | mortality at 40 mg/m2, 40 mg/m2 [2] [%] | mortality at 50 ppm [3] [%] | mortality at 200 ppm [3] [%] | mortality at 3.5 ppm [4] [%] | mortality at 200 ppm [5] [%] | mortality at 200 ppm [6] [%] | mortality at 500 ppm [7] [%] | mortality at 40 mg/m2, 40 mg/m2 [8] [%] | mortality at 100 mg/m2, 100 mg/m2 [9] [%] |
| --- | --- | --- | --- | --- | --- | --- | --- | --- | --- | --- |
| CNS(=O)(=O)c1c(-c2cnc(OCC(F)(F)C(F)(F)F)n(C)c2=O)nc2cc(C(F)(F)F)ccn12 [compound 10] | ≥ 80 | ≥ 80 | ≥ 80 | ≥ 80 | > 90 | ≥ 80 | ≥ 80 | ≥ 80 | ≥ 80 | – |
| CCNS(=O)(=O)c1c(-c2ccc(OCC(F)(F)C(F)(F)F)n(C)c2=O)nc2ccc(Br)cn12 [compound 2] | ≥ 80 | – | ≥ 80 | ≥ 80 | – | ≥ 80 | ≥ 80 | ≥ 80 | – | – |
| CNS(=O)(=O)c1c(-c2cnc(OCC(F)(F)C(F)(F)F)n(C)c2=O)nc2ccc(C(F)(F)F)cn12 [compound 9] | ≥ 80 | – | ≥ 80 | ≥ 80 | > 90 | ≥ 80 | ≥ 80 | ≥ 80 | – | – |
| Cn1c(OCC(F)(F)C(F)(F)F)ncc(-c2nc3ccc(Br)cn3c2S(=O)(=O)NC2CC2)c1=O [compound 5] | ≥ 80 | ≥ 80 | ≥ 80 | ≥ 80 | > 90 | ≥ 80 | – | ≥ 80 | ≥ 80 | – |
| CNS(=O)(=O)c1c(-n2cnc3ccc(OC(F)(F)F)cc3c2=O)nc2ccc(I)cn12 [compound 12] | ≥ 80 | – | ≥ 80 | ≥ 80 | – | ≥ 80 | ≥ 80 | ≥ 80 | – | – |
| Cn1c(OCC(F)(F)C(F)(F)F)ncc(-c2nc3ccc(Br)cn3c2S(N)(=O)=O)c1=O [compound 6] | ≥ 80 | – | ≥ 80 | ≥ 80 | – | ≥ 80 | ≥ 80 | ≥ 80 | – | – |
| CN(C)S(=O)(=O)c1c(-c2ccc(OCC(F)(F)C(F)(F)F)n(C)c2=O)nc2ccc(Br)cn12 [compound 3] | ≥ 80 | – | ≥ 80 | ≥ 80 | – | ≥ 80 | ≥ 80 | ≥ 80 | – | – |
| CNS(=O)(=O)c1c(-c2ccc(OCC(F)(F)C(F)(F)F)n(C)c2=O)nc2ccc(I)cn12 [compound 4] | ≥ 80 | ≥ 80 | ≥ 80 | ≥ 80 | > 90 | ≥ 80 | ≥ 80 | ≥ 80 | – | ≥ 80 |
| CNS(=O)(=O)c1c(-c2cnc(OCC(F)(F)C(F)(F)F)n(C)c2=O)nc2cc(I)ccn12 [compound 8] | ≥ 80 | ≥ 80 | ≥ 80 | ≥ 80 | > 90 | ≥ 80 | ≥ 80 | ≥ 80 | ≥ 80 | – |
| CN(C)S(=O)(=O)c1c(-n2cnc3ccc(OC(F)(F)F)cc3c2=O)nc2ccc(I)cn12 [compound 11] | ≥ 80 | – | ≥ 80 | ≥ 80 | – | ≥ 80 | ≥ 80 | ≥ 80 | – | – |
| CNS(=O)(=O)c1c(-c2cnc(OCC(F)(F)C(F)(F)F)n(C)c2=O)nc2ccc(I)cn12 [compound 7] | ≥ 80 | ≥ 80 | ≥ 80 | ≥ 80 | > 90 | ≥ 80 | ≥ 80 | ≥ 80 | – | – |
| CNS(=O)(=O)c1c(-c2ccc(OCC(F)(F)C(F)(F)F)n(C)c2=O)nc2ccc(C(F)(F)F)cn12 [compound 1] | ≥ 80 | ≥ 80 | ≥ 80 | ≥ 80 | > 90 | ≥ 80 | – | ≥ 80 | – | – |
